Test results published in ChEMBL document CHEMBL5038669, “Development of the First Covalent Monopolar Spindle Kinase 1 (MPS1/TTK) Inhibitor” (J Med Chem, 2022).
Active and inactive are the calls of the source. The rule behind the calls is not given here.

Assays:
[1] = Microsomal stability in mouse liver microsomes assessed as half life at 100 uM pre-incubated for 5 mins with NADPH- regenerating system followed by liver microsomal addition and measured upto 120 mins by HPLC analysis; format: ADME, Microsome; conditions: time <=125 min
[2] = molecular target: T1, Dual specificity protein kinase TTK (Homo sapiens, UniProt P33981); assay: Inhibition of recombinant human full length N-terminal GST-fused MPS1 (1 to 857 residues) using histone H3 as substrate measured immediately in presence of DTT by TR-FRET assay
T1 sequence (P33981 whole entry): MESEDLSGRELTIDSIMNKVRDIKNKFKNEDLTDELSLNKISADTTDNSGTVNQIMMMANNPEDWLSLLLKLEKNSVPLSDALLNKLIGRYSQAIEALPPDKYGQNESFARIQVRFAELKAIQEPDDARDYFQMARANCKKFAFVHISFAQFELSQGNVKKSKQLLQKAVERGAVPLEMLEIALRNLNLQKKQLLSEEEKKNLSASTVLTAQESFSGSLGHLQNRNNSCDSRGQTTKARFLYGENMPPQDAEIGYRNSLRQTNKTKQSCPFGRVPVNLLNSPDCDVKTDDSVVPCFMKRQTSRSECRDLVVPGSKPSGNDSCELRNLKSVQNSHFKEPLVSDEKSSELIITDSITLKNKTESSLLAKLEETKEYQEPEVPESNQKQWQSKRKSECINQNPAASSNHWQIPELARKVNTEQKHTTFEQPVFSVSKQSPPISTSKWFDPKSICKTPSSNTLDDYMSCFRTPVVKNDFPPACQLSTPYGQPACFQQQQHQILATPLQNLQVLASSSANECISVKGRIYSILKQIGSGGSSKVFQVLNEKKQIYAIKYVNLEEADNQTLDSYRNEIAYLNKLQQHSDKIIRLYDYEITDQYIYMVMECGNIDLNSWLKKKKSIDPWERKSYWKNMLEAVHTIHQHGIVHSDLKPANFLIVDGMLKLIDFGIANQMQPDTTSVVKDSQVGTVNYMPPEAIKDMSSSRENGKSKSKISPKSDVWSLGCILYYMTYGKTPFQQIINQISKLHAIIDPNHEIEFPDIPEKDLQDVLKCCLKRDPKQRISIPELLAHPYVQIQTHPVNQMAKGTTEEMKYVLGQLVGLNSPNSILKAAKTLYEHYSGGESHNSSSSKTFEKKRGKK

[3] = molecular target: T1, Dual specificity protein kinase TTK; assay: Inhibition of recombinant human full length N-terminal GST-fused MPS1 (1 to 857 residues) using histone H3 as substrate measured after 1 hr in presence of DTT by TR-FRET assay
[4] = molecular target: T1, Dual specificity protein kinase TTK; assay: Inhibition of recombinant human full length N-terminal GST-fused MPS1 (1 to 857 residues) using histone H3 as substrate measured after 2 hrs in presence of DTT by TR-FRET assay
[5] = molecular target: T1, Dual specificity protein kinase TTK; assay: Inhibition of recombinant human full length N-terminal GST-fused MPS1 (1 to 857 residues) using histone H3 as substrate measured after 4 hrs in presence of DTT by TR-FRET assay
[6] = molecular target: T2, Dual specificity protein kinase TTK (Homo sapiens) (UniProt P33981); assay: Covalent inhibition of human full length N-terminal GST-fused MPS1 (1 to 857 residues) assessed as Kinact by TR-FRET assay
T2 sequence (whole entry): T1 sequence (P33981 whole entry)

[7] = molecular target: T1, Dual specificity protein kinase TTK; assay: Covalent inhibition of human full length N-terminal GST-fused MPS1 (1 to 857 residues) assessed as inhibition constant by TR-FRET assay
[8] = molecular target: T2, Dual specificity protein kinase TTK (Homo sapiens); assay: Covalent inhibition of human full length N-terminal GST-fused MPS1 (1 to 857 residues) assessed as Kinact/Ki ratio by TR-FRET assay
[9] = molecular target: T1, Dual specificity protein kinase TTK; assay: Displacement of tracer K9 from NanoLuc-fused MPS1 (unknown origin) expressed in HEK293T cells measured after 2 hrs by NanoBRET assay; format: cell-based
[10] = molecular target: Fibroblast growth factor receptor 4 (Homo sapiens, UniProt P22455); assay: Inhibition of human recombinant FGFR4 expressed in Sf9 insect cells using poly[Glu:Tyr] 4:1 as substrate in presence of [33P]-ATP by radiometric hotspot kinetic assay
Sequence of Fibroblast growth factor receptor 4 (P22455 whole entry): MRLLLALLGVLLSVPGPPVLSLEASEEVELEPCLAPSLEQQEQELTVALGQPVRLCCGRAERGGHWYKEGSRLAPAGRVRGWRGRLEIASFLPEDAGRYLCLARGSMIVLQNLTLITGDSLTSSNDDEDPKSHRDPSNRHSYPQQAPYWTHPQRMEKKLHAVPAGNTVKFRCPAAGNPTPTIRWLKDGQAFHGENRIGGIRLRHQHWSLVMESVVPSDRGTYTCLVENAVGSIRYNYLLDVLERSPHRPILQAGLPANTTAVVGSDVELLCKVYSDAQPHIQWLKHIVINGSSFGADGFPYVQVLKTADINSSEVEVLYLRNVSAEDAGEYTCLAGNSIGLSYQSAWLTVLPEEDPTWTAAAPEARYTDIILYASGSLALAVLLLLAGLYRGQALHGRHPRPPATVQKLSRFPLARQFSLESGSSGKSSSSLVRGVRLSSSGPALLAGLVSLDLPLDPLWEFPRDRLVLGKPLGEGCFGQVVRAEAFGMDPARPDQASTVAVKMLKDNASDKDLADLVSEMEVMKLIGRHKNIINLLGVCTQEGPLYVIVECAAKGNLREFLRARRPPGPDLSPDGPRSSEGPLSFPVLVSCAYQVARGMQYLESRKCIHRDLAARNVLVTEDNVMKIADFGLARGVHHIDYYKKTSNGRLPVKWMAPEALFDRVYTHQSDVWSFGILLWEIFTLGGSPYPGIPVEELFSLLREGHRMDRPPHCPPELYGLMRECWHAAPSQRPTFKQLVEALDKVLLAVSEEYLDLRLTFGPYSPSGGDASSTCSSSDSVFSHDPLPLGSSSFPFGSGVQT

[11] = molecular target: MAP kinase-activated protein kinase 2 (Homo sapiens, UniProt P49137); assay: Inhibition of human recombinant MAPKAPK2 expressed in Sf9 insect cells using [KKLNRTLSVA] as substrate in presence of [33P]-ATP by radiometric hotspot kinetic assay
Sequence of MAP kinase-activated protein kinase 2 (P49137 whole entry): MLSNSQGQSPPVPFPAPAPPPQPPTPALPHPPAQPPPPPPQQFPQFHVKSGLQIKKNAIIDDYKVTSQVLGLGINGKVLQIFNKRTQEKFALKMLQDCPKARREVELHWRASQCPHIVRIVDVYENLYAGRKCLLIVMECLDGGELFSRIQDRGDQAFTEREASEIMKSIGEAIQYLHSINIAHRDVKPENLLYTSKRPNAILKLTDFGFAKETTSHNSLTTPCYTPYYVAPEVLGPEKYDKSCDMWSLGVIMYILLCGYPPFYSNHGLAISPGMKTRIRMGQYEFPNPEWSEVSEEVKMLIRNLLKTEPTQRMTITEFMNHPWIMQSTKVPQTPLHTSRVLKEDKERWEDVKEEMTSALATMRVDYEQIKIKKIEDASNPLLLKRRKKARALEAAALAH

[12] = molecular target: MAP kinase-activated protein kinase 3 (Homo sapiens, UniProt Q16644); assay: Inhibition of human recombinant MAPKAPK3 expressed in Sf9 insect cells using [KKLNRTLSVA] as substrate in presence of [33P]-ATP by radiometric hotspot kinetic assay
Sequence of MAP kinase-activated protein kinase 3 (Q16644 whole entry): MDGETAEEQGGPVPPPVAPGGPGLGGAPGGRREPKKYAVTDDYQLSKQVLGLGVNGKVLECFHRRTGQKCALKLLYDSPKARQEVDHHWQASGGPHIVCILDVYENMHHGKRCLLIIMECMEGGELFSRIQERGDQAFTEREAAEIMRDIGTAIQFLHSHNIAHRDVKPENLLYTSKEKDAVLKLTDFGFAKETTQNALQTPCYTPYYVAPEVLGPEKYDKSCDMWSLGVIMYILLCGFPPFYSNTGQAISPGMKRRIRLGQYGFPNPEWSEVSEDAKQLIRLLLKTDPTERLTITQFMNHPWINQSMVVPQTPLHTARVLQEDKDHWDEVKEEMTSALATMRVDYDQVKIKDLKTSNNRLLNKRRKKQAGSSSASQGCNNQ

[13] = molecular target: Ribosomal protein S6 kinase beta-2 (Homo sapiens, UniProt Q9UBS0); assay: Inhibition of human recombinant P70S6Kbeta expressed in Sf9 insect cells using [KKRNRTLTK] as substrate in presence of [33P]-ATP by radiometric hotspot kinetic assay
Sequence of Ribosomal protein S6 kinase beta-2 (Q9UBS0 whole entry): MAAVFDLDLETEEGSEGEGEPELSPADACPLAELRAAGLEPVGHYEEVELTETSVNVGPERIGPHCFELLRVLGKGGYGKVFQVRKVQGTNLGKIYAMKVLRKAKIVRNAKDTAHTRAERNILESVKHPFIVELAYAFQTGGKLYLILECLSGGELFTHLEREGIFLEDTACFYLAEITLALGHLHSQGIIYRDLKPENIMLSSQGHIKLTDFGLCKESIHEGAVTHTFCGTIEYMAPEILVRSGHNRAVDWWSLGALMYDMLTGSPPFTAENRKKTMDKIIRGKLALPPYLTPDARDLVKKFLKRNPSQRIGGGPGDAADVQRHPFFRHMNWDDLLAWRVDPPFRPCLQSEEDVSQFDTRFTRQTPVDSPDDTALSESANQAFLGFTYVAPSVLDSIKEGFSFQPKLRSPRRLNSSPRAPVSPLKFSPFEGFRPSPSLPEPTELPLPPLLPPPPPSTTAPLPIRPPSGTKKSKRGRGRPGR

[14] = Stability of compound in glutathione at pH 7.4 assessed as half life by HPLC analysis; format: physicochemical; conditions: glutathione solution, time 5 min
MDA-MB-231 = assay: Cytotoxicity against human MDA-MB-231cells assessed as reduction in cell viability incubated for 5 days by XTT assay; format: functional, cell-based; conditions: time 5.0 day
MDA-MB-468 = assay: Cytotoxicity against human MDA-MB-468 cells assessed as reduction in cell viability incubated for 5 days by XTT assay; format: functional, cell-based; conditions: time 5.0 day
HCT-15 = assay: Cytotoxicity against human HCT-15 cells assessed as reduction in cell viability incubated for 5 days by XTT assay; format: functional, cell-based; conditions: time 5.0 day
HCT-116 [15] = assay: Cytotoxicity against human HCT-116 cells assessed as reduction in cell viability incubated for 5 days by XTT assay; format: functional, cell-based; conditions: time 5.0 day
HCT-116 [16] = assay: Cell cycle arrest in human HCT-116 cells assessed as accumulation in G2/M phase incubated for 3 days; format: functional, cell-based; conditions: time 3.0 day
HCT-116 [17] = assay: Induction of apoptosis in human HCT-116 cells assessed as upregulation of p53 expression measured after 3 days by Western blot analysis; format: functional, cell-based; conditions: time 3.0 day
HCT-116 [18] = assay: Induction of apoptosis in human HCT-116 cells assessed as upregulation of p21 expression measured after 3 days by Western blot analysis; format: functional, cell-based; conditions: time 3.0 day
HCT-116 [19] = assay: Induction of apoptosis in human HCT-116 cells assessed as upregulation of phospho-gammaH2A.X expression measured after 3 days by Western blot analysis; format: functional, cell-based; conditions: time 3.0 day
HCT-116 [20] = assay: Induction of apoptosis in human HCT-116 cells assessed as down regulation of cyclin B1 expression measured after 3 days by Western blot analysis; format: functional, cell-based; conditions: time 3.0 day
HCT-116 [21] = assay: Induction of apoptosis in human HCT-116 cells assessed as increase in cleaved PARP level measured for 3 days by Western blot analysis; format: functional, cell-based; conditions: time 3.0 day
SW-620 = assay: Antiproliferative activity against human SW-620 cells; format: functional, cell-based
Huh-7 = assay: Induction of apoptosis in human Huh-7 cells assessed as down regulation of cyclin B1 expression at 200 nM measured upto 5 days by Western blot analysis; format: functional, cell-based; conditions: time day <=5
Hep 3B2 [22] = assay: Induction of apoptosis in human Hep3B cells assessed as down regulation of cyclin B1 expression at 200 nM measured upto 5 days by Western blot analysis; format: functional, cell-based; conditions: time day <=5
SNU-387 = assay: Induction of apoptosis in human SNU-387 cells assessed as down regulation of cyclin B1 expression at 200 nM measured upto 5 days by Western blot analysis; format: functional, cell-based; conditions: time day <=5
Hep 3B2 [23] = assay: Induction of apoptosis in human Hep3B cells assessed as increase in cleaved PARP level at 200 nM measured upto 5 days by Western blot analysis; format: functional, cell-based; conditions: time day <=5

half-life at 100 µM [1]: 1 h
IC50 [2]: 40.2 nM
IC50 [3]: 28.1 nM
IC50 [4]: 20 nM
IC50 [5]: 13.8 nM
Kinact [6]: 0.000242 s⁻¹
Ki [7]: 14.2 nM
Ratio [8]: 1.71 10^4/M/s
IC50 [9]: 22.4 nM
IC50 [10]: 2750 nM
IC50 [11]: > 5000 nM
IC50 [12]: > 5000 nM
IC50 [13]: 1650 nM
half-life at 100 µM [14]: 84.5 h
Compound: C=CC(=O)Nc1cc(N2CCN(C)CC2)ccc1Nc1ncc2c(n1)-n1ccc(C(=O)Nc3c(CC)cccc3CC)c1CC2
Activity (MDA-MB-231): Active
Activity (MDA-MB-468): Active
Activity (HCT-15): Active
Activity (HCT-116 [15]): Active
Activity (HCT-116 [16]): Active
Activity (HCT-116 [17]): Active
Activity (HCT-116 [18]): Active
Activity (HCT-116 [19]): Active
Activity (HCT-116 [20]): Active
Activity (HCT-116 [21]): Active
Activity (SW-620): Active
Activity (Huh-7): Active
Activity (Hep 3B2 [22]): Active
Activity (SNU-387): Active
Activity (Hep 3B2 [23]): Active
